ChEMBL document CHEMBL4477255, “Charting the chemical space around the (iso)indoline scaffold, a comprehensive approach towards multitarget directed ligands” (Bioorg Med Chem Lett, 2016)

Tests used:
Type in all cases: cell-based
[1] = biological target: T1, 5-hydroxytryptamine receptor 6 (Homo sapiens, UniProt P50406); assay: Displacement of [3H]LSD from human recombinant 5-HT6 receptor expressed in CHO-K1 cells at 1 uM incubated for 3 hrs by scintillation counting analysis
[2] = biological target: T2, D(3) dopamine receptor (Homo sapiens, UniProt P35462); assay: Displacement of [3H]raclopride from human recombinant dopamine D3 receptor expressed in CHO-K1 cells at 1 uM incubated for 120 mins by liquid scintillation counting analysis
T2 sequence (P35462 whole entry): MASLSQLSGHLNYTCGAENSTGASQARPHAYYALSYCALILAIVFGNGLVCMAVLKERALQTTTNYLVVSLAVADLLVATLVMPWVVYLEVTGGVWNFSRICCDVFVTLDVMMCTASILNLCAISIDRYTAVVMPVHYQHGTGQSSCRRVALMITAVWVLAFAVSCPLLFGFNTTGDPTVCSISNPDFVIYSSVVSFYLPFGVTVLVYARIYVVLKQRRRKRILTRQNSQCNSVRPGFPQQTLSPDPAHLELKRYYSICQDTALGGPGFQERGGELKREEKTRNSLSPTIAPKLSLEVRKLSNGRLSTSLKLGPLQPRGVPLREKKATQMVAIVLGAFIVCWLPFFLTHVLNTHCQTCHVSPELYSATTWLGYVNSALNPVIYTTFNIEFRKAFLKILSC

[3] = biological target: T3, D(2) dopamine receptor (Homo sapiens, UniProt P14416); assay: Displacement of [3H]raclopride from human recombinant dopamine D2 long receptor expressed in CHO-K1 cells at 1 uM incubated for 120 mins by scintillation counting analysis
T3 sequence (P14416 whole entry): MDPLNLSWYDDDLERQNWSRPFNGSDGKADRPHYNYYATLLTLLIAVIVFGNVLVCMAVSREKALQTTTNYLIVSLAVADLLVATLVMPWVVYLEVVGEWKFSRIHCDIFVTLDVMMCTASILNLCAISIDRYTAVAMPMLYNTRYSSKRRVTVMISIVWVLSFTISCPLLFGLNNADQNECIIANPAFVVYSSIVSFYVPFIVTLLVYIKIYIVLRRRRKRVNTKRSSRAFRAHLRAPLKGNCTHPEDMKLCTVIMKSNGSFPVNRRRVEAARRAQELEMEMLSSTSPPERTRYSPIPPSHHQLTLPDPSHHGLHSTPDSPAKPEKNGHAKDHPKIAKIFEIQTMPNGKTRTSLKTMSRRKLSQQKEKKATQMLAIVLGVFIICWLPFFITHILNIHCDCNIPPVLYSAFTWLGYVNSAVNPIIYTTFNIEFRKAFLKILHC

[4] = biological target: T4, Histamine H3 receptor (Homo sapiens, UniProt Q9Y5N1); assay: Displacement of N-alpha-[methyl-3H]methylhistamine dihydrochloride from human recombinant histamine H3 receptor expressed in CHO-K1 cells at 1 uM incubated for 30 mins by liquid scintillation counting analysis
T4 sequence (Q9Y5N1 whole entry): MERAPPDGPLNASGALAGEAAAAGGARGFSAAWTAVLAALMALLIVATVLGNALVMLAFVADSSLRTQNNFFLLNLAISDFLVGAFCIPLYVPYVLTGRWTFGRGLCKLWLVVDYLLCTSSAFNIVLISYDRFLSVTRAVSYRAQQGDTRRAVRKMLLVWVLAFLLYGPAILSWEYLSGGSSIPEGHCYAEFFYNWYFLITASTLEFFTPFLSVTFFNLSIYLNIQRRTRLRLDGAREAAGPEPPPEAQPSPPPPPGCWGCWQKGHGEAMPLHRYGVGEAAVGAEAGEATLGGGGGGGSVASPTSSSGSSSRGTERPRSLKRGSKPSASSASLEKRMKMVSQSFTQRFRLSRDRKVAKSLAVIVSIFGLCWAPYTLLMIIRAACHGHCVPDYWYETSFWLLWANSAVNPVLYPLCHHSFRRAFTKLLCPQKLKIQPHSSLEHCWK

[5] = biological target: T4, Histamine H3 receptor; assay: Displacement of N-alpha-[methyl-3H]methylhistamine dihydrochloride from human recombinant histamine H3 receptor expressed in CHO-K1 cells incubated for 30 mins by liquid scintillation counting analysis
[6] = biological target: T1, 5-hydroxytryptamine receptor 6; assay: Displacement of [3H]LSD from human recombinant 5-HT6 receptor expressed in CHO-K1 cells incubated for 3 hrs by scintillation counting analysis
[7] = biological target: T2, D(3) dopamine receptor; assay: Displacement of [3H]raclopride from human recombinant dopamine D3 receptor expressed in CHO-K1 cells incubated for 120 mins by liquid scintillation counting analysis
[8] = biological target: T3, D(2) dopamine receptor; assay: Displacement of [3H]raclopride from human recombinant dopamine D2 long receptor expressed in CHO-K1 cells incubated for 120 mins by scintillation counting analysis
[9] = organism: Homo sapiens; assay: Selectivity index, ratio of Ki for human recombinant dopamine D3 receptor expressed in CHO-K1 cells to Ki for dopamine D2 long receptor expressed in CHO-K1 cells
[10] = organism: Homo sapiens; assay: Selectivity index, ratio of Ki for human recombinant dopamine D3 receptor expressed in CHO-K1 cells to Ki for human recombinant 5-HT6 receptor expressed in CHO-K1 cells
[11] = organism: Homo sapiens; assay: Selectivity index, ratio of Ki for human recombinant dopamine D2 long receptor expressed in CHO-K1 cells to Ki for human recombinant 5-HT6 receptor expressed in CHO-K1 cells
[12] = organism: Homo sapiens; assay: Selectivity index, ratio of Ki for human recombinant histamine H3 receptor expressed in CHO-K1 cells to Ki for human recombinant 5-HT6 receptor expressed in CHO-K1 cells

T1 sequence (P50406 whole entry): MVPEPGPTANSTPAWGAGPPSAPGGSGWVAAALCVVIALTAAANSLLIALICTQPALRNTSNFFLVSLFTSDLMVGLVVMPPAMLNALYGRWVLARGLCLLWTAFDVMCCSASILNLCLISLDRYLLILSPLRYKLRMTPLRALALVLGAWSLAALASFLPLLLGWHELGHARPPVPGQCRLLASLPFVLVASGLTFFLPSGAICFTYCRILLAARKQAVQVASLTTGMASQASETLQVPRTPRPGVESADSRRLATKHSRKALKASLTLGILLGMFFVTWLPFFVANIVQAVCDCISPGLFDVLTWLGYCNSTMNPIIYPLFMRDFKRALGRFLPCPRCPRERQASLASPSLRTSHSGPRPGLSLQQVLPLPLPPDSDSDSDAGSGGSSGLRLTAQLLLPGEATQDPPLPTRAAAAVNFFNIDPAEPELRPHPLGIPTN

Compound	inhibition [1] [%]	inhibition [2] [%]	inhibition [3] [%]	inhibition [4] [%]	Ki [5] [nM]	Ki [6] [nM]	Ki [7] [nM]	Ki [8] [nM]	Ratio Ki [9]	Ratio Ki [10]	Ratio Ki [11]	Ratio Ki [12]
O=S(=O)(c1ccccc1)N1Cc2ccc(N3CCN(C4CCC4)CC3)cc2C1	1	34	1	74	395							
O=S(=O)(c1ccccc1)N1CCc2c(N3CCN(C4CCC4)CC3)cccc21	51	60	60	59	580	266	449	355				
CCN1CCN(c2ccc3c(c2)CN(S(=O)(=O)c2ccccc2)C3)CC1	-7	61	22	60	294		688					
CN1CCC(c2ccc3c(c2)CCN3S(=O)(=O)c2ccccc2)CC1	86	48	14	59	299	128	401					
O=S(=O)(c1ccccc1)N1CCc2c(C3CCN(C4CCC4)CC3)cccc21	1	9	48	82	214			1040				
CCN1CCN(c2ccc3c(c2)CCN3S(=O)(=O)c2ccccc2)CC1	53	94	50	65	280	129	48	438				
CCN1CCC(c2cccc3c2CCN3S(=O)(=O)c2ccccc2)CC1	59	58	25	50	317	170	591					
CN1CCN(c2cccc3c2CCN3S(=O)(=O)c2ccccc2)CC1	96	77	67	17		8.2	173	211	1.5			
CN1CCC(c2cccc3c2CN(S(=O)(=O)c2ccccc2)C3)CC1	94	14	14	14		9				> 100	> 100	> 100
CCCN1CCC(c2ccc3c(c2)N(S(=O)(=O)c2ccccc2)CC3)CC1	81	98	59	14		71	26	324	< 10			
CCN1CCN(c2cccc3c2CCN3S(=O)(=O)c2ccccc2)CC1	89	91	80	50	344	31	72	84	1.5			
CCN1CCC(c2ccc3c(c2)CN(S(=O)(=O)c2ccccc2)C3)CC1	4	32	18	48	302							
CCN1CCC(c2ccc3c(c2)CCN3S(=O)(=O)c2ccccc2)CC1	40	72	17	54	448		321					
CCCN1CCN(c2cccc3c2CCN3S(=O)(=O)c2ccccc2)CC1	78	97	87	27		74	17	42	1.5			
CCN1CCN(c2ccc3c(c2)N(S(=O)(=O)c2ccccc2)CC3)CC1	86	95	77	20		60	16	136	< 10			
O=S(=O)(c1ccccc1)N1CCc2ccc(N3CCN(C4CCC4)CC3)cc21	60	78	50	36		186	173	411	< 10			
O=S(=O)(c1ccccc1)N1Cc2cccc(C3CCNCC3)c2C1	101	16	17	4		0.43				> 100	> 100	> 100
